Results published in patent US8106215B2, “3-aza-bicyclo[3.3.0]octane compounds” (Actelion Pharmaceuticals Ltd., priority 2007, dated 2012).

Assays:
[1] = target: T1, human orexin-1 receptor (Homo sapiens, UniProt O43613); experiment: Intracellular calcium measurements (FLIPR), orexin receptor antagonistic activity, OX1; assay type: cell-based; conditions: CHO cells expressing human orexin-1 receptor, 3 nM orexin-A
T1 construct: expressed in transfected cells; host or cells: CHO cells (G418 selection)
T1 sequence (O43613 1-425): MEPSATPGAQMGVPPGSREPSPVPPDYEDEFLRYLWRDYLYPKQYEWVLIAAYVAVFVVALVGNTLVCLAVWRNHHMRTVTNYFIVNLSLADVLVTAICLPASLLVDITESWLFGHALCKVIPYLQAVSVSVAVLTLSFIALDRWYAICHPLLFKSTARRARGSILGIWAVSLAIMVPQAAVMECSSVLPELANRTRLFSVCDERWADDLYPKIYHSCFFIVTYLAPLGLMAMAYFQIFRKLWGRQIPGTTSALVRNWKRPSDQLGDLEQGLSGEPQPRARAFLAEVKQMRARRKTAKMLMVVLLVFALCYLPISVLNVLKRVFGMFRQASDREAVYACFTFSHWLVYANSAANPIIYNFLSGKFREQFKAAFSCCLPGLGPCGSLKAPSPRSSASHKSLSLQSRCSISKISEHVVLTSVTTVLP
Experimental: (§1) The orexin receptor antagonistic activity of the compounds of formula (I) is determined in accordance with the following experimental method.
(§2) Intracellular Calcium Measurements:
(§3) Chinese hamster ovary (CHO) cells expressing the human orexin-1 receptor and the human orexin-2 receptor, respectively, are grown in culture medium (Ham F-12 with L-Glutamine) containing 300 μg/ml G418, 100 U/ml penicillin, 100 μg/ml streptomycin and 10% heat inactivated fetal calf serum (FCS). The cells are seeded at 20,000 cells/well into 384-well black clear bottom sterile plates (Greiner). The seeded plates are incubated overnight at 37° C. in 5% CO2.
(§4) Human orexin-A as an agonist is prepared as 1 mM stock solution in MeOH:water (1:1), diluted in HBSS containing 0.1% bovine serum albumin (BSA), NaHCO3: 0.375 g/l and 20 mM HEPES for use in the assay at a final concentration of 3 nM.
(§5) Antagonists are prepared as 10 mM stock solution in DMSO, then diluted in 384-well plates using DMSO followed by a transfer of the dilutions into in HBSS containing 0.1% bovine serum albumin (BSA), NaHCO3: 0.375 g/l and 20 mM HEPES. On the day of the assay, 50 μl of staining buffer (HBSS containing 1% FCS, 20 mM HEPES, NaHCO3: 0.375 g/l, 5 mM probenecid (Sigma) and 3 μM of the fluorescent calcium indicator fluo-4 AM (1 mM stock solution in DMSO, containing 10% pluronic) is added to each well. The 384-well cell-plates are incubated for 50 min at 37° C. in 5% CO2 followed by equilibration at rt for 30-120 min before measurement.
(§6) Within the Fluorescent Imaging Plate Reader (FLIPR2 or FLIPR Tetra, Molecular Devices), antagonists are added to the plate in a volume of […], incubated for 10 min and finally 10 μl/well of agonist is added. Fluorescence is measured for each well at 1 second intervals, and the height of each fluorescence peak is compared to the height of the fluorescence peak induced by 3 nM orexin-A with vehicle in place of antagonist. For each antagonist, the IC50 value (the concentration of compound needed to inhibit 50% of the agonistic response) is determined. With the FLIPR Tetra, non-optimized and optimized conditions were used. Optimized conditions were achieved by adjustment of pipetting speed and cell splitting regime. The calculated IC50 values of the compounds may fluctuate depending on the daily cellular assay performance. Fluctuations of this kind are known to those skilled in the art.

[2] = target: T2, human orexin-2 receptor (Homo sapiens, UniProt O43614); experiment: Intracellular calcium measurements (FLIPR), orexin receptor antagonistic activity, OX2; assay type: cell-based; conditions: CHO cells expressing human orexin-2 receptor, 3 nM orexin-A
T2 construct: expressed in transfected cells; host or cells: CHO cells (G418 selection)
T2 sequence (O43614 1-444): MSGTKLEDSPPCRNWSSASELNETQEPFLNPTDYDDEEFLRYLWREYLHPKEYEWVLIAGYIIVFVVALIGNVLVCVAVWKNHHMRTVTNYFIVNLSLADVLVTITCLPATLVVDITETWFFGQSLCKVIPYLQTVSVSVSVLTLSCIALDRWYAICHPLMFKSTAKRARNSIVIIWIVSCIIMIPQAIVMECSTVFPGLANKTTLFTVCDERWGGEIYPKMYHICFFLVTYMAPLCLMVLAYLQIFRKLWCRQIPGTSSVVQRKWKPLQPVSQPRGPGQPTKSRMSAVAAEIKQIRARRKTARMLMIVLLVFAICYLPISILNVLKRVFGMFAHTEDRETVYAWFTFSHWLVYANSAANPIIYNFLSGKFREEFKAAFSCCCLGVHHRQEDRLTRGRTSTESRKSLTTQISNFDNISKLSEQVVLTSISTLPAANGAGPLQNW
Experimental: as §1, §2, §3, §4, §5, §6

[3] = FLIPR Tetra, non-optimized conditions
[4] = FLIPR Tetra, optimized conditions

Row | Structure (SMILES) | IC50 ([1]; FLIPR2) | IC50 ([2]; FLIPR2) | IC50 [1, 3] | IC50 [2, 3] | other results
1 | Cc1cccc(-c2sc(C)nc2C(=O)N2C[C@@H]3CC(C)C[C@@H]3[C@H]2CNC(=O)c2c(C)noc2C)c1 (stereo partly drawn) [Example 6, 3,5-Dimethyl-isoxazole-4-carboxylic acid-(1S,2S,5R)-[7-methyl-3-(2-methyl-5-m-tolyl-thiazole-4-carbonyl)-3-aza-bicyclo[3.3.0]-2-ylmethyl]-amide] | 0.059 µM | 0.114 µM |  |  | 
2 | Cc1cccc(-c2sc(C)nc2C(=O)N2C[C@@H]3CC(C)C[C@@H]3[C@H]2CNC(=O)c2noc3ccccc23)c1 (stereo partly drawn) [Example 7, Benzo[d]isoxazole-3-carboxylic acid-(1S,2S,5R)-[7-methyl-3-(2-methyl-5-m-tolyl-thiazole-4-carbonyl)-3-aza-bicyclo[3.3.0]oct-2-ylmethyl]-amide] | 0.012 µM | 0.013 µM |  |  | 
3 | Cc1nc(C(=O)N2C[C@@H]3CC(C)C[C@@H]3[C@H]2CNC(=O)c2c(C)nc3sccn23)c(-c2ccc(F)c(F)c2)s1 (stereo partly drawn) [Example 51, 6-Methyl-imidazo[2,1-b]thiazole-5-carboxylic acid-(1S,2S,5R)-{3-[5-(3,4-difluoro-phenyl)-2-methyl-thiazole-4-carbonyl]-7-methyl-3-aza-bicyclo[3.3.0]oct-2-ylmethyl}-amide] |  |  | 0.033 µM | 0.094 µM | 
4 | Cc1nc2sccn2c1C(=O)NC[C@@H]1[C@H]2CCC[C@H]2CN1C(=O)c1nc(N)sc1-c1cccc(F)c1 [Example 70, 6-Methyl-imidazo[2,1-b]thiazole-5-carboxylic acid-(1S,2S,5R)-{3-[2-amino-5-(3-fluoro-phenyl)-thiazole-4-carbonyl]-3-aza-bicyclo[3.3.0]oct-2-ylmethyl}-amide] |  |  | 0.017 µM | 0.02 µM | 
5 | Cc1cccc(-c2sc(C)nc2C(=O)N2C[C@@H]3CC(F)(F)C[C@@H]3[C@H]2CNC(=O)c2cccc3c2CCO3)c1 [Example 79, 2,3-Dihydro-benzofuran-4-carboxylic acid-(1S,2S,5R)-[7,7-difluoro-3-(2-methyl-5-m-tolyl-thiazole-4-carbonyl)-3-aza-bicyclo[3.3.0]oct-2-ylmethyl]-amide] |  |  |  |  | IC50 [1, 4]: 0.008 µM; IC50 [2, 4]: 0.02 µM
6 | Cc1cccc(-c2sc(C)nc2C(=O)N2C[C@@H]3CC(F)(F)C[C@@H]3[C@H]2CNC(=O)c2cccc3ncsc23)c1 [Example 81, Benzothiazole-7-carboxylic acid-(1S,2S,5R)-[7,7-difluoro-3-(2-methyl-5-m-tolyl-thiazole-4-carbonyl)-3-aza-bicyclo[3.3.0]oct-2-ylmethyl]-amide] |  |  |  |  | IC50 [1, 4]: 0.006 µM; IC50 [2, 4]: 0.01 µM
7 | Cc1cccc(-c2sc(C)nc2C(=O)N2C[C@@H]3CC(F)(F)C[C@@H]3[C@H]2CNC(=O)c2c(C)nc3sccn23)c1 [Example 85, 6-Methyl-imidazo[2,1-b]-thiazole-5-carboxylic acid-(1S,2S,5R)-[7,7-difluoro-3-(2-methyl-5-m-tolyl-thiazole-4-carbonyl)-3-aza-bicyclo[3.3.0]oct-2-ylmethyl]-amide] |  |  |  |  | IC50 [1, 4]: 0.007 µM; IC50 [2, 4]: 0.018 µM

Now from value to molecule, other results behind:

Row | IC50 ([1]; FLIPR2) | IC50 ([2]; FLIPR2) | IC50 [1, 3] | IC50 [2, 3] | Structure (SMILES) | other results
8 | 0.007 µM | 0.009 µM |  |  | Cc1cccc(-c2sc(C)nc2C(=O)N2C[C@@H]3CC(C)C[C@@H]3[C@H]2CNC(=O)c2cnc3sccn23)c1 (stereo partly drawn) [Example 11, Imidazo[2,1-b]thiazole-5-carboxylic acid-(1S,2S,5R)-[7-methyl-3-(2-methyl-5-m-tolyl-thiazole-4-carbonyl)-3-aza-bicyclo[3.3.0]oct-2-ylmethyl]-amide] | 
9 | 0.077 µM | 0.047 µM |  |  | Cc1cccc(C(=O)NC[C@@H]2[C@H]3CC(C)C[C@H]3CN2C(=O)c2nc(C)sc2-c2cccc(C)c2)c1 (stereo partly drawn) [Example 19, (1S,2S,5R)-3-Methyl-N-[7-methyl-3-(2-methyl-5-m-tolyl-thiazole-4-carbonyl)-3-aza-bicyclo[3.3.0]oct-2-ylmethyl]-benzamide] | 
10 | 0.024 µM | 0.048 µM |  |  | Cc1cccc(-c2sc(C)nc2C(=O)N2C[C@@H]3CC(C)C[C@@H]3[C@H]2CNC(=O)c2cc(Cl)ccn2)c1 (stereo partly drawn) [Example 25, 4-Chloro-pyridine-2-carboxylic acid-(1S,2S,5R)-[7-methyl-3-(2-methyl-5-m-tolyl-thiazole-4-carbonyl)-3-aza-bicyclo[3.3.0]oct-2-ylmethyl]-amide] | 
11 |  |  | 0.008 µM | 0.017 µM | COc1cccc(-c2sc(C)nc2C(=O)N2C[C@@H]3CCC[C@@H]3[C@H]2CNC(=O)c2c(C)nc3sccn23)c1 [Example 33, 6-Methyl-imidazo[2,1-b]thiazole-5-carboxylic acid-(1S,2S,5R)-{3-[5-(3-methoxy-phenyl)-2-methyl-thiazole-4-carbonyl]-3-aza-bicyclo[3.3.0]oct-2-ylmethyl}-amide] | 
12 |  |  | 0.044 µM | 0.262 µM | Cc1nc(C(=O)N2C[C@@H]3CC(C)C[C@@H]3[C@H]2CNC(=O)c2c(C)nc3sccn23)c(-c2cccc(C(F)(F)F)c2)s1 (stereo partly drawn) [Example 36, 6-Methyl-imidazo[2,1-b]thiazole-5-carboxylic acid-(1S,2S,5R)-{7-methyl-3-[2-methyl-5-(3-trifluoromethyl-phenyl)-thiazole-4-carbonyl]-3-aza-bicyclo[3.3.0]oct-2-ylmethyl}-amide] | 
13 |  |  | 0.016 µM | 0.021 µM | Cc1nc2sccn2c1C(=O)NC[C@@H]1[C@H]2CCC[C@H]2CN1C(=O)c1ccccc1-c1ccccc1 [Example 60, 6-Methyl-imidazo[2,1-b]thiazole-5-carboxylic acid-(1S,2S,5R)-[3-(biphenyl-2-carbonyl)-3-aza-bicyclo[3.3.0]oct-2-ylmethyl]-amide] | 
